Tests used:
[1] = system: Arabidopsis thaliana seeds; test: Arabidopsis seed germination on sterol-supplemented media; format: in vivo; details: for decrease in germination: 100 μM exogenous sterol
Description: (§1) Plants and Plant Growth Conditions. Cholesterol (C3045, Sigma-Aldrich, USA), stigmasterol (S2424, Sigma-Aldrich, USA), and β-sitosterol (567152, Millipore-Sigma, USA) were prepared as stock solutions with a slight modification from that described in literature. Sterols were dissolved in 100% ethanol at 1.5 mM concentration and combined with methyl-β-cyclodextrin (MβCD) (Sigma-Aldrich, USA) at a molar ratio of 1:3 to a final concentration of 1-300 μM sterol and 1-900 μM MβCD. The probe was either sonicated for 30 minutes and vortexed for 15 minutes before use, or just vortexed for 30 min before use. To make a powered water soluble form, the sterol (40-70% w/w β-sitosterol) is dissolved in 100% ethanol and then solubilized in β-cyclodextrins or their derivatives in water. The solution is then reduced by evaporation or freeze-drying to a powdered form.
(§2) The wild-type and transgenic seeds of Arabidopsis thaliana were surface-sterilized with 70% ethanol, rinsed in sterile distilled water (+/− sterol) and incubated at 4° C. in the dark for 48 hr. The imbibed seeds were then planted either planted in Petri dishes or in hydroponic containers. For Petri dish growth, 1% (w/v) agar (Sigma-Aldrich, USA) was dissolved in ½ strength Murashige and Skoog medium containing vitamins (Caisson Labs, USA) (+/− sterol), and the pH was adjusted to between 5.6 and 5.8. The seedlings were grown in vertically placed Petri dishes containing this medium for 5-10 days at 22° C. under the continuous white light (50 μmol m^−2sec^−1 photosynthetically active radiation). Hydroponic culture was a modification of that described in previous literature. The seeds were placed on a mesh inserted into the bottom of a sterile polypropylene 2 oz cup with a lid (TY-M2-100, Bingwu, sold on Amazon) inset into either a 4 oz sterile polypropylene cup (TY-M4-N50 Bingwu, sold on Amazon) or a black 5.5 oz sterile polypropylene Dart Conex cup (B07BK1DPPS, Table Top King, sold on Amazon). Enough medium (½ strength Murashige and Skoog medium containing vitamins (Caisson Labs, USA) (+/− sterol), and the pH was adjusted to between 5.6 and 5.8) was added to bring it up to the level of the mesh. They were grown for […] to maturity (˜75 days) in an 18:6 hr photoperiod at 22° C. with 100 […] photosynthetically active. Following growth, they were then harvested for sterol analysis, leaf venation analysis, or fresh and dry weight analysis, or photographed for image analysis of root, hypocotyl, and stem growth and color. Seed from typical crop plants, Nicotiana tabacum (tobacco) and Zea mays (corn) were also sown in defined medium in the presence and absence of encapsulated sterol to assess percent germination after one week. Common weed seeds (Amaranthus palmeri, Poa annua, and Ambrosia sp.) collected from natural sources were either grown in defined media (agar and Mirashige and Skoog medium) or planted in natural soils (sandy loam) in 2 inch inserts in plastic one foot square flats. They were treated with 100-500 microMolar phytosterol mix (40% β-sitosterol, 20% campesterol, 7% stigmasterol (SKU BSIT100, Bulk Supplements) with a 3:1 molar ratio of methyl-β-cyclodextrin in water. Growth was assessed in treated and untreated (only water) by seedling emergence in days after planting in a greenhouse with natural lighting.
(§3) Materials and Methods. Arabidopsis seeds were given a pre-cold treatment with a mixture of sterol, cholesterol (Sigma-Aldrich) or stigmasterol (Sigma-Aldrich) (1 microMolar, 10 microMolar and 100 microMolar) and methyl-β-cyclodextrin (Sigma-Aldrich) (1:3 ratio) and then planted on Murashige and Skoog-½ strength (Caisson's Lab) 1% agar media supplemented with a mixture of respective sterol and cyclodexterin (1:3 ratio). Common weed seeds (Amaranthus palmeri, Poa annua, and Ambrosia sp.) collected from natural sources were planted in natural soils (sandy loam) in 2 inch inserts in plastic one foot square flats. […]

Arabidopsis thaliana = test: Arabidopsis growth and development on sterol-supplemented media; format: in vivo; details: for growth phenotype: 100 μM exogenous sterol; for root anatomy: 100 μM sterol; for biomass: 8-days old seedlings on sterol-supplemented media, high sterol (FIG. 5A, 5B); for chlorophyll levels: plants grown on sterol media (FIG. 4A-4D); for root and root hair growth and development: sterol-supplemented media (FIG. 3A-3E)
Description: as §1, §2, §3

[2] = 10 microMolar encapsulated sterol
[3] = 100 microMolar encapsulated sterol

| SMILES | decrease in germination [1] [%] | seed germination (in words) [1, 2] | seed germination (in words) [1, 3] | germination inhibited ([1]; 300 microMolar encapsulated sterol, after a week of growth (FIG. 6A)) [%] | vein pattern (Arabidopsis thaliana; 100 μM) | growth phenotype (Arabidopsis thaliana) | root anatomy (Arabidopsis thaliana) | biomass (Arabidopsis thaliana) | chlorophyll levels (Arabidopsis thaliana) | root and root hair growth and development (Arabidopsis thaliana) |
| --- | --- | --- | --- | --- | --- | --- | --- | --- | --- | --- |
| CC(C)CCC[C@@H](C)[C@H]1CC[C@H]2[C@@H]3CC=C4C[C@@H](O)CC[C@]4(C)[C@H]3CC[C@]12C [cholesterol, Cholesterol] | 40 | seeds germinate | significantly inhibit | 90 | altered vein pattern | severe dwarfism | altered root anatomy | reduced biomass | change chlorophyll levels | alters |
| CC[C@H](/C=C/[C@@H](C)[C@H]1CC[C@H]2[C@@H]3CC=C4C[C@@H](O)CC[C@]4(C)[C@H]3CC[C@]12C)C(C)C [stigmasterol] | 35 | seeds germinate | significantly inhibit |  |  | severe dwarfism | altered root anatomy | reduced biomass | change chlorophyll levels | alters |

From patent publication US20220312762A1, “USE OF ENCAPSULATED STEROLS TO MODIFY GROWTH OF CROPS, CONTROL, AGRICULTURAL PESTS AND AS NON-TOXIC PRE-EMERGENT HERBICIDES” (The Texas A&M University System, priority 2019, published 2022)
